Reference: ChEMBL document CHEMBL5442219

Legend:
Details in all cases: Compound concentration 10 µM
[1] = target: T1, Alpha-1B adrenergic receptor (Homo sapiens) (UniProt P35368)
T1 sequence (whole entry): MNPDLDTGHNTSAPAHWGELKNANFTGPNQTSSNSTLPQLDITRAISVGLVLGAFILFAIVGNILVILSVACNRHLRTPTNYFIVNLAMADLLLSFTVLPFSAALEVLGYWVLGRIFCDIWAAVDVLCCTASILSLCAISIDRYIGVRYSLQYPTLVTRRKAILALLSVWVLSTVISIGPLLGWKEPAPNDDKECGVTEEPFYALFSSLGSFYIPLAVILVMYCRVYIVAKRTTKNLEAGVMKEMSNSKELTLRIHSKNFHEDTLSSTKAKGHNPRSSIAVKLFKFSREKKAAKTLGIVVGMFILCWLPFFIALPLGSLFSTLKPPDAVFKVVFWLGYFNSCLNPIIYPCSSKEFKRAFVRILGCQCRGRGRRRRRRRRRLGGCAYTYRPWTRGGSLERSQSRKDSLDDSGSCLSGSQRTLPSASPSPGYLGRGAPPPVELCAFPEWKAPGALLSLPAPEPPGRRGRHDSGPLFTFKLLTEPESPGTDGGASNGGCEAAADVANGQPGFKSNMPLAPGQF
Description: PDSP Primary Binding target: ADRA1B - Compounds are tested at 10 uM concentration, plate are incubated at room temperature in the dark for 90 minutes. Reaction are stopped by vacuum filtration onto 0.3% polyethyleneimine soaked filter mats using Filtermate harvester. Scintilation cocktail is then melted onto microwave-dried filters on a hot plate and the radio activity is counted in Microbia counter.

[2] = target: T2, Muscarinic acetylcholine receptor M2 (Homo sapiens) (UniProt P08172)
T2 sequence (whole entry): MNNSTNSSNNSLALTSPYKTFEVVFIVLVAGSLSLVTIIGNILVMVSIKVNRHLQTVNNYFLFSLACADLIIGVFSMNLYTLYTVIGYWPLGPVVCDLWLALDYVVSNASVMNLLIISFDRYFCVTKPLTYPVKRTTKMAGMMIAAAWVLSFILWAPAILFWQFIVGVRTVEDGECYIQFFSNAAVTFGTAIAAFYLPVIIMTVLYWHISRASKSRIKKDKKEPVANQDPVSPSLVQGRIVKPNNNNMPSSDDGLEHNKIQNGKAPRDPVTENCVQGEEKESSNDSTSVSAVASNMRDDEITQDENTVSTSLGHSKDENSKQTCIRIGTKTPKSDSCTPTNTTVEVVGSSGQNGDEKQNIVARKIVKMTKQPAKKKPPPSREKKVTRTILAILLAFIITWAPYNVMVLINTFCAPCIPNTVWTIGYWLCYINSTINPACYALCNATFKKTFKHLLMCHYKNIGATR
Description: PDSP Primary Binding target: CHRM2 - Compounds are tested at 10 uM concentration, plate are incubated at room temperature in the dark for 90 minutes. Reaction are stopped by vacuum filtration onto 0.3% polyethyleneimine soaked filter mats using Filtermate harvester. Scintilation cocktail is then melted onto microwave-dried filters on a hot plate and the radio activity is counted in Microbia counter.

[3] = target: T3, Muscarinic acetylcholine receptor M5 (Homo sapiens) (UniProt P08912)
T3 sequence (whole entry): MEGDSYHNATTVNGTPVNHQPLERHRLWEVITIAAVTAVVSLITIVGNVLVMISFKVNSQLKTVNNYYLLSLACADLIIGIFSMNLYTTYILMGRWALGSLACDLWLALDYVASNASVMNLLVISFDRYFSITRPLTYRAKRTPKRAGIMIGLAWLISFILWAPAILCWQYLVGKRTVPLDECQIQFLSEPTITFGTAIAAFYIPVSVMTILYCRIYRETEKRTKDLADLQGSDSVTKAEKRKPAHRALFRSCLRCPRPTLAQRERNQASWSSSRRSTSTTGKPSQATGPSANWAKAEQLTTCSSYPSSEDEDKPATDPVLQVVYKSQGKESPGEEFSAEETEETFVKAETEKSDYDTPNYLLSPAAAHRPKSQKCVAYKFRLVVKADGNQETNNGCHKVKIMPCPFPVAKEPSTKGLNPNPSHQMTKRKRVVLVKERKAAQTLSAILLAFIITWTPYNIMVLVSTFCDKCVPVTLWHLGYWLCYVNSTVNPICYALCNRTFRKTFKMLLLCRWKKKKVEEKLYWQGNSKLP
Description: PDSP Primary Binding target: CHRM5 - Compounds are tested at 10 uM concentration, plate are incubated at room temperature in the dark for 90 minutes. Reaction are stopped by vacuum filtration onto 0.3% polyethyleneimine soaked filter mats using Filtermate harvester. Scintilation cocktail is then melted onto microwave-dried filters on a hot plate and the radio activity is counted in Microbia counter.

[4] = target: D(3) dopamine receptor (Homo sapiens) (UniProt P35462)
Chain of D(3) dopamine receptor (Homo sapiens) (P35462 whole entry): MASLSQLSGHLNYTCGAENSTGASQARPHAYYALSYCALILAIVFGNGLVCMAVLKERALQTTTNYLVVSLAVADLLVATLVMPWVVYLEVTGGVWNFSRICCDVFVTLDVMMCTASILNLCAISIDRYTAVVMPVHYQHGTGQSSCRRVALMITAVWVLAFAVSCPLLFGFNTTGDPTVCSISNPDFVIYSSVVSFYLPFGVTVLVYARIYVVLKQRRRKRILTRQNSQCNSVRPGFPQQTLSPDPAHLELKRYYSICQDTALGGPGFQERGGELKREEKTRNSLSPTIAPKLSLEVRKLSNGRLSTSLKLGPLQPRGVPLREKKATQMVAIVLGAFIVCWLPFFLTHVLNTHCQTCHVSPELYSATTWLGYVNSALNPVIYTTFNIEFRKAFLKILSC
Description: PDSP Primary Binding target: DRD3 - Compounds are tested at 10 uM concentration, plate are incubated at room temperature in the dark for 90 minutes. Reaction are stopped by vacuum filtration onto 0.3% polyethyleneimine soaked filter mats using Filtermate harvester. Scintilation cocktail is then melted onto microwave-dried filters on a hot plate and the radio activity is counted in Microbia counter.

[5] = target: T4, 5-hydroxytryptamine receptor 2C (Homo sapiens) (UniProt P28335)
T4 sequence (whole entry): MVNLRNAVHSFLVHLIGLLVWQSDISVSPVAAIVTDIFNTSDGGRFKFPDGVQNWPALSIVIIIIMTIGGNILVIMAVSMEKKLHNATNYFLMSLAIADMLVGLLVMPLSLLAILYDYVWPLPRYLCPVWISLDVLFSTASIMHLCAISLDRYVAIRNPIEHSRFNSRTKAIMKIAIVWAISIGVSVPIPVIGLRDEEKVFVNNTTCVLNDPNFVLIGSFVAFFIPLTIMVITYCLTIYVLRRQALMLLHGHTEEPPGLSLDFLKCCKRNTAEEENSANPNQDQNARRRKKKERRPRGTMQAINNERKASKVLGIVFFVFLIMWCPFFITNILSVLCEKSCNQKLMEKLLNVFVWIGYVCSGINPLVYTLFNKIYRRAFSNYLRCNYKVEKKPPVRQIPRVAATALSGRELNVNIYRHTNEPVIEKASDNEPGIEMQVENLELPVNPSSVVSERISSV
Description: PDSP Primary Binding target: HTR2C - Compounds are tested at 10 uM concentration, plate are incubated at room temperature in the dark for 90 minutes. Reaction are stopped by vacuum filtration onto 0.3% polyethyleneimine soaked filter mats using Filtermate harvester. Scintilation cocktail is then melted onto microwave-dried filters on a hot plate and the radio activity is counted in Microbia counter.

[6] = target: T5, 5-hydroxytryptamine receptor 3A (Homo sapiens) (UniProt P46098)
T5 sequence (whole entry): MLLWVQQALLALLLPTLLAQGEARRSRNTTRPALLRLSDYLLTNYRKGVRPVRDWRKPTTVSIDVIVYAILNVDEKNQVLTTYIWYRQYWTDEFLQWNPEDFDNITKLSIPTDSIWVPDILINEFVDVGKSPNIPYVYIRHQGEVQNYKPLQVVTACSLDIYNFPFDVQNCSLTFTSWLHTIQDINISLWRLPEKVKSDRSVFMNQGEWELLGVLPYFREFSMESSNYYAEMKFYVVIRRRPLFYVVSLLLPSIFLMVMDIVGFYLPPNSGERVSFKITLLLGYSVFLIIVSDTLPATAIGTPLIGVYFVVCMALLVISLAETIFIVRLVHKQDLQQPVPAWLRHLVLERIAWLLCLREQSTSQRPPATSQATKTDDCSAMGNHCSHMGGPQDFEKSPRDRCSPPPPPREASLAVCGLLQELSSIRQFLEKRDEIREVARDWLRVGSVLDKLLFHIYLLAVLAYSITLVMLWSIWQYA
Description: PDSP Primary Binding target: HTR3A - Compounds are tested at 10 uM concentration, plate are incubated at room temperature in the dark for 90 minutes. Reaction are stopped by vacuum filtration onto 0.3% polyethyleneimine soaked filter mats using Filtermate harvester. Scintilation cocktail is then melted onto microwave-dried filters on a hot plate and the radio activity is counted in Microbia counter.

[7] = target: 5-hydroxytryptamine receptor 7 (Homo sapiens) (UniProt P34969)
Chain of 5-hydroxytryptamine receptor 7 (Homo sapiens) (P34969 whole entry): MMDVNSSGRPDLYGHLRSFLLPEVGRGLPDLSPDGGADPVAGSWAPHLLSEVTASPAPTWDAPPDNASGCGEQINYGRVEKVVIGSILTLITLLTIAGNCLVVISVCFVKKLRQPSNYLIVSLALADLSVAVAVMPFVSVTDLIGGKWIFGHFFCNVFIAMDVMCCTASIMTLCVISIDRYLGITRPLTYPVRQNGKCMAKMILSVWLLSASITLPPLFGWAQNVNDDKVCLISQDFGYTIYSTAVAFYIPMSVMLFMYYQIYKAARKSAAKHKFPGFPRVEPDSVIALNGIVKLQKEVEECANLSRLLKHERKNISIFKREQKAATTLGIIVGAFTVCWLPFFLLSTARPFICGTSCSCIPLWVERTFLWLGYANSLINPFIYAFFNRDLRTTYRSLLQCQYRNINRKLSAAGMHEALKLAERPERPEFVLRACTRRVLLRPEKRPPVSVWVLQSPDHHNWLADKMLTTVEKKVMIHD
Description: PDSP Primary Binding target: HTR7 - Compounds are tested at 10 uM concentration, plate are incubated at room temperature in the dark for 90 minutes. Reaction are stopped by vacuum filtration onto 0.3% polyethyleneimine soaked filter mats using Filtermate harvester. Scintilation cocktail is then melted onto microwave-dried filters on a hot plate and the radio activity is counted in Microbia counter.

[8] = target: Delta-type opioid receptor (Homo sapiens) (UniProt P41143)
Chain of Delta-type opioid receptor (Homo sapiens) (P41143 whole entry): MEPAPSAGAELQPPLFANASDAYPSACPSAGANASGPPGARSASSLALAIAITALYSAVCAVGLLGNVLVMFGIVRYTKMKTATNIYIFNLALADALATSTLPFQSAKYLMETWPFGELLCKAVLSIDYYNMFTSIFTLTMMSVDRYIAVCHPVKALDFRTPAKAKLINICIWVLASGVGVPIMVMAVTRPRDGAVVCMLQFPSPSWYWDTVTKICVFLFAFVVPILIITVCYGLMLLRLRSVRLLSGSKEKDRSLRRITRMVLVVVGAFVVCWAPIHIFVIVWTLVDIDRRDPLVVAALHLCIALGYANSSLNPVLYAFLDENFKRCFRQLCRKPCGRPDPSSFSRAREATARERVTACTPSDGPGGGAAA
Description: PDSP Primary Binding target: OPRD1 - Compounds are tested at 10 uM concentration, plate are incubated at room temperature in the dark for 90 minutes. Reaction are stopped by vacuum filtration onto 0.3% polyethyleneimine soaked filter mats using Filtermate harvester. Scintilation cocktail is then melted onto microwave-dried filters on a hot plate and the radio activity is counted in Microbia counter.

[9] = target: Sigma non-opioid intracellular receptor 1 (Homo sapiens) (UniProt Q99720)
Chain of Sigma non-opioid intracellular receptor 1 (Homo sapiens) (Q99720 whole entry): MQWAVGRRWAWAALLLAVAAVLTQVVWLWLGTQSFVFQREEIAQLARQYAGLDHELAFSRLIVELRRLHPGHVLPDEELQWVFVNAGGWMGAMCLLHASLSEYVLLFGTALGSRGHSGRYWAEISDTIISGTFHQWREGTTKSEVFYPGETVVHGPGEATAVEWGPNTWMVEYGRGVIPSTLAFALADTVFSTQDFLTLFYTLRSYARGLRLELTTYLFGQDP
Description: PDSP Primary Binding target: SIGMAR1 - Compounds are tested at 10 uM concentration, plate are incubated at room temperature in the dark for 90 minutes. Reaction are stopped by vacuum filtration onto 0.3% polyethyleneimine soaked filter mats using Filtermate harvester. Scintilation cocktail is then melted onto microwave-dried filters on a hot plate and the radio activity is counted in Microbia counter.

[10] = target: Sodium-dependent noradrenaline transporter (Homo sapiens) (UniProt P23975)
Chain of Sodium-dependent noradrenaline transporter (Homo sapiens) (P23975 whole entry): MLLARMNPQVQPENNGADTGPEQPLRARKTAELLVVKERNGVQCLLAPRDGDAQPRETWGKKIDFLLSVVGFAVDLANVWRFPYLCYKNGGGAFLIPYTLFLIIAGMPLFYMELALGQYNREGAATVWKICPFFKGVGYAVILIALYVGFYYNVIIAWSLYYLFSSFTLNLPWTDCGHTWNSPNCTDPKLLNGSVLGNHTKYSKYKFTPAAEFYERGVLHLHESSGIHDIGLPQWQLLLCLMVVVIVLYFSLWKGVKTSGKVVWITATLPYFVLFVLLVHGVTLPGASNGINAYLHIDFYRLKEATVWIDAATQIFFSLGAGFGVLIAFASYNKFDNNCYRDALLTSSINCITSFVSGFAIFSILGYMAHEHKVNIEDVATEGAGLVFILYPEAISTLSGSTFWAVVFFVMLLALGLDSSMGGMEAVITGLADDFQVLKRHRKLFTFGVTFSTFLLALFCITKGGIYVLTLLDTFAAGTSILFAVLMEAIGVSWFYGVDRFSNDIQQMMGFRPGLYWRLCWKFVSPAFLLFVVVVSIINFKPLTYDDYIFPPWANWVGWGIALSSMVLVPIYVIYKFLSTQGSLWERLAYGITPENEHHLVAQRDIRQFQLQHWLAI
Description: PDSP Primary Binding target: SLC6A2 - Compounds are tested at 10 uM concentration, plate are incubated at room temperature in the dark for 90 minutes. Reaction are stopped by vacuum filtration onto 0.3% polyethyleneimine soaked filter mats using Filtermate harvester. Scintilation cocktail is then melted onto microwave-dried filters on a hot plate and the radio activity is counted in Microbia counter.

[11] = target: Muscarinic acetylcholine receptor M3 (Homo sapiens) (UniProt P20309)
Chain of Muscarinic acetylcholine receptor M3 (Homo sapiens) (P20309 whole entry, looked up): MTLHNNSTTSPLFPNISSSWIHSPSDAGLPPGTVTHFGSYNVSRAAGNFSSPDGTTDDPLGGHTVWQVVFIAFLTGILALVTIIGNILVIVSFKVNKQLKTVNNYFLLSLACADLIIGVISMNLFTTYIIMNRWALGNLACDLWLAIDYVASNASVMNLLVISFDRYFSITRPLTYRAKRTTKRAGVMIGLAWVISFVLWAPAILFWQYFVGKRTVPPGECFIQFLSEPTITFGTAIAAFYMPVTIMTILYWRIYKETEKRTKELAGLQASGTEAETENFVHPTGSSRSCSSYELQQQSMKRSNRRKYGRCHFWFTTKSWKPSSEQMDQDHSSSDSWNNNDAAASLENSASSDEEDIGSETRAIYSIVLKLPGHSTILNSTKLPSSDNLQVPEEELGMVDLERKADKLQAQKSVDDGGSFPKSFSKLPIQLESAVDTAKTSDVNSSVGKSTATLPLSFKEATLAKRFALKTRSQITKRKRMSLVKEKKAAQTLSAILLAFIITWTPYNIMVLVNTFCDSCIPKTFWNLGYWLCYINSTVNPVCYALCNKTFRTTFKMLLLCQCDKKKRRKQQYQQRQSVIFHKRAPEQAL
Description: PDSP Primary Binding target: CHRM3 - Compounds are tested at 10 uM concentration, plate are incubated at room temperature in the dark for 90 minutes. Reaction are stopped by vacuum filtration onto 0.3% polyethyleneimine soaked filter mats using Filtermate harvester. Scintilation cocktail is then melted onto microwave-dried filters on a hot plate and the radio activity is counted in Microbia counter.

[12] = target: 5-hydroxytryptamine receptor 2A (Homo sapiens) (UniProt P28223)
Chain of 5-hydroxytryptamine receptor 2A (Homo sapiens) (P28223 whole entry): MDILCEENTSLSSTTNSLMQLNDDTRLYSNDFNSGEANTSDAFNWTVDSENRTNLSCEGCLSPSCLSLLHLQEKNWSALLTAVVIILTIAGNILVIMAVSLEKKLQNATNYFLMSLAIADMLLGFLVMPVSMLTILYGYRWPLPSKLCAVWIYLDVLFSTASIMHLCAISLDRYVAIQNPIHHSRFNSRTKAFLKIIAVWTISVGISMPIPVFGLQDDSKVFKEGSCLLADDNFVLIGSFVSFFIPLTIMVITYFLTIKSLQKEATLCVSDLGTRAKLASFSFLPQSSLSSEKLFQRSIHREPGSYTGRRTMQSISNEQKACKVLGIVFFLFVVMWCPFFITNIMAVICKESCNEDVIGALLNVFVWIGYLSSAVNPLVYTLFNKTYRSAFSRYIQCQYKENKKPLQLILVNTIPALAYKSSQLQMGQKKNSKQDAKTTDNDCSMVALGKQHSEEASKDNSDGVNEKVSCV
Description: PDSP Primary Binding target: HTR2A - Compounds are tested at 10 uM concentration, plate are incubated at room temperature in the dark for 90 minutes. Reaction are stopped by vacuum filtration onto 0.3% polyethyleneimine soaked filter mats using Filtermate harvester. Scintilation cocktail is then melted onto microwave-dried filters on a hot plate and the radio activity is counted in Microbia counter.

[13] = target: Sodium-dependent serotonin transporter (Homo sapiens) (UniProt P31645)
Chain of Sodium-dependent serotonin transporter (Homo sapiens) (P31645 whole entry, looked up): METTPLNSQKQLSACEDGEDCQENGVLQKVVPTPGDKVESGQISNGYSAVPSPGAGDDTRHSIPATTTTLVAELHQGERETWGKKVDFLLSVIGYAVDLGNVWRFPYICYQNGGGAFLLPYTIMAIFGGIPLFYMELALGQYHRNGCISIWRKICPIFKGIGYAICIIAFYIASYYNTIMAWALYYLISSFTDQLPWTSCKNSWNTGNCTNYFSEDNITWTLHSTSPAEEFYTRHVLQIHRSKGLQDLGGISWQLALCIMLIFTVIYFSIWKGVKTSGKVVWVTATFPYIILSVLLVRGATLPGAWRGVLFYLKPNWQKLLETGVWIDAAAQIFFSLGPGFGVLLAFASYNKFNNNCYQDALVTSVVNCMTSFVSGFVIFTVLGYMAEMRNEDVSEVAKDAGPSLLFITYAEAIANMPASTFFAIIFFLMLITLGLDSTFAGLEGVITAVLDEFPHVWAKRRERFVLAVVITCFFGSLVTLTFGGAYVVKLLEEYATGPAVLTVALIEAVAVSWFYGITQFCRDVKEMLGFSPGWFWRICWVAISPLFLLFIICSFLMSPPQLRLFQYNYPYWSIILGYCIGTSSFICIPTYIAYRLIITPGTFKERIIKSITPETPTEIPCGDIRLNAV
Description: PDSP Primary Binding target: SLC6A4 - Compounds are tested at 10 uM concentration, plate are incubated at room temperature in the dark for 90 minutes. Reaction are stopped by vacuum filtration onto 0.3% polyethyleneimine soaked filter mats using Filtermate harvester. Scintilation cocktail is then melted onto microwave-dried filters on a hot plate and the radio activity is counted in Microbia counter.

Row | Structure (SMILES) | inhibition [1] | inhibition [2] | inhibition [3] | inhibition [4] | inhibition [5] | inhibition [6] | inhibition [7] | inhibition [8] | inhibition [9] | inhibition [10] | inhibition [11] | inhibition [12] | inhibition [13]
1 | CCCCc1nc(Cl)c(CO)n1Cc1ccc(-c2ccccc2-c2nnn[nH]2)cc1 | -2.24% | -0.57% | 0.95% | 46.3% | 55% | -6.45% | 40% | 19.2% | 9.91% | 11.8% | – | – | –
2 | Cc1c(OCc2cccc(-c3ccc(C(=O)O)cc3)c2)cc2c(c1C)C(=O)C(C1CCCC1)C2 (centres undefined) | 63.1% | 32.3% | – | 33.5% | 6.16% | -4.07% | – | -8.42% | -6.04% | – | 34.5% | 6.01% | –
3 | COc1ccc(Br)cc1S(=O)(=O)NC(=O)/C=C/c1ccccc1Cc1ccc2ccccc2c1 | -0.54% | 40.7% | 16.9% | 64.7% | 26.2% | 3.03% | – | -2.75% | 11% | -0.94% | 12.9% | 8.02% | –
4 | C=CCN1C[C@H](C)N([C@H](c2ccc(C(=O)N(CC)CC)cc2)c2cccc(O)c2)C[C@H]1C | 10.2% | – | – | 6.85% | 0.93% | 10% | – | 99.9% | 87.3% | 13% | -6.19% | 2.09% | 13.7%
5 | CCN(CC)CCCCC1CCN(CC(=O)N2c3ccccc3C(=O)Nc3cccnc32)CC1 | -0.95% | 81.4% | 72.4% | 13.8% | – | 3.5% | – | 24.6% | – | 15.3% | 88.7% | 9.83% | –
6 | Cc1nc(C(=O)N2CCC[C@H]2Cc2nnc(-c3ccccc3)o2)c(-c2ccccc2F)s1 | 9.45% | 71.2% | 29.8% | 45% | 4.37% | -1.8% | – | -2.06% | 35.9% | – | -8.01% | 8.26% | –
7 | O=C(O)CC/C=C\C[C@@H]1CO[C@H](c2ccccc2Cl)O[C@@H]1c1ccccc1O | -9.67% | -3.76% | – | 40% | -5.63% | – | – | 46% | -1.8% | – | 6.61% | 3.61% | –
8 | CCCSc1nc(N[C@@H]2C[C@H]2c2ccc(F)c(F)c2)c2nnn([C@@H]3C[C@H](OCCO)[C@@H](O)[C@H]3O)c2n1 | – | -1.83% | 10.8% | 29.6% | -3.61% | 4.33% | 16.8% | 17.9% | 35.4% | – | – | 10.9% | –
9 | C[C@H](Cc1cc2c(c(C(N)=O)c1)N(CCCO)CC2)NCCOc1ccccc1OCC(F)(F)F | 81.6% | -1.87% | – | 94.1% | – | 1.73% | 83.6% | – | 38.9% | -2.22% | -2.64% | 36.2% | –
10 | CCCCC#Cc1nc(NC)c2ncn([C@@H]3O[C@H](CO)[C@@H](O)[C@H]3O)c2n1 | 8.1% | 22.8% | 20% | 32.7% | 17.8% | 14.1% | – | 9.12% | -7.49% | – | 13.6% | 92.5% | –
11 | CCCCN(CC)c1nc(C)nc2c1c(C)cn2-c1c(C)cc(C)cc1C | 14.4% | – | – | 18.6% | -7.17% | -1.19% | – | 7.66% | 28.8% | -0.04% | – | 9.7% | 2.76%
12 | C[C@H](CO)Nc1nc(SCc2cccc(Cl)c2F)nc2[nH]c(=O)sc12 | 3.03% | – | – | 13.7% | 15% | – | -7.53% | – | 15.8% | – | – | 7.55% | 1.74%
13 | c1ccc(N2CCN(Cc3nc4ccccc4[nH]3)CC2)nc1 | – | -8.11% | -1.59% | 33.1% | -9.96% | -2.37% | 33.7% | -5.06% | 50.5% | – | -4.76% | 6.02% | –
14 | CSc1ccc(C(=O)N[C@@H]2CCCC[C@@H]2NC(=O)CNC(=O)c2cc(C(F)(F)F)ccc2NC(=O)NC(C)C)cc1 | -0.4% | – | – | 86.6% | 33.2% | -5.92% | 2.72% | 4.07% | 22.2% | – | – | 9.73% | 13.7%
15 | CCCCN(CCCC)C(=O)CN1C[C@@H](c2ccc3c(c2)OCO3)[C@H](C(=O)O)[C@H]1c1ccc(OC)cc1 | -5.54% | – | 30.2% | 28.4% | – | 2.68% | -7.92% | -0.59% | 59.9% | 5.56% | – | 13.8% | -9.18%
16 | COc1ccc(S(=O)(=O)c2cc(OC)ccc2S(=O)(=O)c2ccc([C@H](C)NS(C)(=O)=O)cc2)cc1 | -4.35% | – | -5.9% | 73.4% | 18.7% | -2.2% | – | – | 23.1% | -0.68% | – | 31.9% | -7.38%
